In patent US9551710B2, “Signaling molecule involved in ultraviolet damage to skin” (Drexel University, priority 2010, dated 2017):

What was measured:
[1] = test system: UV induced apoptosis in mouse skin; conditions: from cited literature; cited from earlier work
[2] = test system: MMP-1 expression in human dermal fibroblasts (HDFs); experiment: MMP-1 expression by western blot of culture supernatants of UV-exposed human dermal fibroblasts pretreated with kinase inhibitors; type: cell-based; conditions: UVB 60 mJ/cm^2, medium collected 24 hours after exposure
Protocol: Human dermal fibroblasts AG04058 (Coriell Institute for Medical Research, Camden, N.J.) were cultured and maintained in MEM containing glucose (4.5 mg/ml), glutamine (2 mM), […], and 10% heat-inactivated fetal bovine serum. For cell transfection, Fugene 6 transfection kit (Roche, Germany) was used to deliver Syk cDNA and the Saint-Red siRNA delivery system (Synvolux Therapeutics B.V., The Netherlands) was chosen to transfect Syk siRNA and control siRNA (Santa Cruz Biotechnology Inc., Santa Cruz, Calif.) into the cells. Cells were exposed to UVB (312 nm) (60 mJ/cm^2) by a Stratalinker UV Crosslinker (Stratagene, La Jolla, Calif.). Cell supernatants were collected 24 hrs after UV exposure, and prepared for MMP-1 expression assay.
Twenty-four hours after UV exposure, the culture media of HDFs were collected for MMP-1 assay. Based on OD280 measurement, equal amounts of proteins from the supernatants were mixed with 2× sample buffer, boiled for 5 min and chilled on ice. Samples were then subjected to […] and electrophoretically transferred to nitrocellulose membrane. The membrane was blocked with 5% dry milk in washing buffer. MMP-1 was detected with anti-MMP-1 antibody, and the results were visualized by an ECL detection system. For Syk protein and MAPK activation western blot assays, cell pellets were lysed in 1× Triton X-100 lysis buffer (1% Triton X-100, 5 mmol/L Hepes—KOH, pH 7.4) in the presence of protease and phosphatase inhibitors containing 5 mM EGTA, 3 mM Na orthovanadate, 2 mM phenylmethylsulfonyl fluoride, and […] aprotinin and leupeptin (Sigma Chemical Co., St. Louis, Mo.). Following centrifugation at 12,000 rpm for 30 min at 4° C., the cleared lysates were subjected to the same procedure as that followed for MMP-1 assay. Syk protein and MAPK activation were detected with anti-Syk antibody and anti-phospho-MAPK antibodies, respectively, by western blot. For the activation of Syk kinase assay, briefly, cell lysates were precleared by incubation with protein G plus agarose (Santa Cruz Biotechnology, Inc.), and then incubated overnight at 4° C. with anti-Syk antibody. Immune complexes would bind to protein G plus agarose in the lysis buffer. The agarose beads were washed three times with lysis buffer and the adsorbed proteins were eluted into the sample buffer. Tyrosine phosphorylation of Syk kinase (Syk activation) was determined with anti-phosphotyrosine antibody by western blot.
Human fibroblast cells (AG04058) were seeded into 24-well tissue culture dishes with MEM medium one day before the assay. Specific inhibitors for each kinase were added into each different well as indicated (FIG. 4). […]
The dose-response of piceatannol inhibition was assessed in HDFs exposed to UVB (60 mJ/cm^2) (FIG. 9B).

Question: With `Oc1ccc(-c2nc(-c3ccncc3)c(-c3ccc(F)cc3)[nH]2)cc1` [SB202190] as the compound, how does the “UV induced apoptosis in mouse skin, in words” value [1] read?
Answer: blocked

Question: For `Oc1cc(O)cc(/C=C/c2ccc(O)c(O)c2)c1` [piceatannol], which “inhibition of MMP-1 expression (western blot, image-density analysis)” value (“inhibition of MMP-1 expression” below) ([2]; piceatannol 1 μg/ml) is on record?
Answer: no inhibition

Question: And the “inhibition of MMP-1 expression” value ([2]; piceatannol 5 μg/ml)?
Answer: no inhibition

Question: What about the “inhibition of MMP-1 expression” value ([2]; piceatannol 10 μg/ml) of the same compound?
Answer: 20%

Question: And the “inhibition of MMP-1 expression” value ([2]; piceatannol 25 μg/ml)?
Answer: 63%
